According to patent US5273986A, “Cycloalkylthiazoles” (Hoffmann-La Roche Inc., priority 1992, dated 1993):
Where two headings read alike, the source gives them in different places. One block for each compound: values may come before it.

Assays:
[1] = tested on: LTD4-induced bronchoconstriction; experiment: Antagonism of LTD4-induced bronchoconstriction in guinea pigs; assay type: in vivo, guinea pig (male, Hartley strain); details: for ED50 / inhibition in vivo at 1 mg/kg: Cavia porcellus; for inhibition in vivo at 1 mg/kg: read-out: percent inhibition at 1 mg/kg p.o., LTD4-induced bronchoconstriction (ID50 not determined)
Protocol: Male guinea pigs (Hartley strain, Charles River) weighing 400-600 g were anesthetized with urethane (2 g/kg) intraperitoneally, and a polyethylene cannula was inserted into the jugular vein for intravenous drug administration. Tracheal pressure (cm of H2 O) was recorded from a Statham pressure transducer (P 32 AA). Propranolol was administered 5 minutes prior to challenge with LTD4. Two minutes later spontaneous breathing was arrested with succinylcholine chloride (1.2 mg/kg) administered intravenously, and the animals were ventilated with a Harvard (Model 680) small animal respirator set at 40 breaths/min and a 4.0 cc stroke volume. Control vehicle (DMSO) or test compound was administered through the cannula into the jugular vein 1 minute before the animals were challenged with a maximum constrictory dose of LTD4 ([…] I.V.) given intravenously. The change in tracheal pressure was averaged for control and drug-treated animals and percent inhibition was calculated. For determination of oral activity, animals were dosed with test compound or vehicle (PEG400) two hours prior to challenge with LTD4 ([…], i.v.).
The relative potency of test compounds administered by the intravenous and oral route was determined by administering increasing doses of test compound at a fixed pretreatment time. The median inhibitory dose (ID50 value) was determined by linear regression of log dose-responsecurves generated by at least 3 doses that caused statistically significant inhibition between 10 and 90%. The correlation coefficient for the regression line was always greater than 0.95. For determination of the time-course of inhibition for various compounds, the time between administration of compound and challenge with LTD4 was varied. Durations of action were defined as the time for inhibitory activity to decrease to 50%.

[2] = target: T1, LTD4 receptor (Cavia porcellus, UniProt Q2NNR5); experiment: LTD4 receptor ligand binding assay (inhibition of [3H]LTD4 specific binding, guinea pig lung membranes); details: 20° C., 30 min
T1 construct: A lung homogenate was prepared from guinea pig lung membranes; from tissue; host or cells: guinea pig lung membranes
T1 sequence (Q2NNR5 1-340): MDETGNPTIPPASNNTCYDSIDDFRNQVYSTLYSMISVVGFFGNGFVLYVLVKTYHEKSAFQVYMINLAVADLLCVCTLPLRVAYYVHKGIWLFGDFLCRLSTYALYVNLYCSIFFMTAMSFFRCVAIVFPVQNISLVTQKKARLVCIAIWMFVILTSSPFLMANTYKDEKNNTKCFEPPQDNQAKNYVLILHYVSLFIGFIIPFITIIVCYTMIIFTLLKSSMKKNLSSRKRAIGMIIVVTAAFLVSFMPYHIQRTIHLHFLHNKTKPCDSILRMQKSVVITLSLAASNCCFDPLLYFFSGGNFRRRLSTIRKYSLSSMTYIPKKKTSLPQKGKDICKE
Protocol: A lung homogenate was prepared from guinea pig lung membranes and was resuspended in buffer containing 10 mM Tris.HCl (pH 7.5) (Hogaboom et al., Hogaboom, G. K., et al: Peptidoleukotrienes: distinct receptors for leukotriene C4 and D4 in the guinea pig lung. Biochem. Biophys. Res. Commun. 116: 1136-1143, 1983). Optimum assay conditions were determined with an assay mixture containing: 10 mM Tris.HCl (pH 7.5); 0.1% bovine serum albumin (BSA); 1 mM glycine; 1 mM cysteine; 3.5 nM [^3 H]LTD4 and the membrane preparation ([…] protein) in a final volume of […]. The incubation was carried out at 20° C. for 30 minutes. At 20° C., binding increased linearly with protein concentration, reached equilibrium in 20 minutes, was saturable, and was reversible upon addition of 1 mM unlabelled LTD4. Separation of bound from free [^3 H]LTD4 as performed by rapid filtration on GF/C glass fiber filters (Whatman International Ltd., Maidstone, England) and washing with two 4-ml aliquots of Tyrode solution (0.9 g/100 ml NaCl; 0.02 g/100 ml KCl; 0.02 g/100 ml CaCl2; 0.01 g/100 ml MgCl2; 0.1 g/100 ml glucose; 0.1 g/100 ml NaHCO3; 0.005 g/100 ml NaH2 PO4) containing 0.1% BSA. Radioactivity remaining on the filters was measured in 10 ml of Aquasol. Specific binding, was defined as that displaced by 1 mM unlabelled LTD4, and was 95% of total binding.
The inhibition of [^3 H]LTD4 specific binding by an antagonist is related to the LTD4 content of that sample by regression analysis from a "standard curve" of the inhibition of [^3 H]LTD4 specific binding by nonlabeled LTD4. The median inhibitory concentration (IC50 value) was determined by linear regression of log concentration-response curves generated by at least 3 concentrations that caused statistically significant inhibition between 10 and 90%. Results are expressed as mean±S. E. M. (standard error of the mean) of n independent experiments (separate receptor batches) conducted in duplicates.

[3] = iv, 1 min, I.V., compound 1 minute before LTD4 challenge, read-out: ID50 I.V., LTD4-induced bronchoconstriction
[4] = po, 2 h, p.o., compound two hours prior to LTD4 challenge, read-out: ID50 p.o., LTD4-induced bronchoconstriction
[5] = po, 2 h, p.o., 1 mg/kg, compound two hours prior to LTD4 challenge

Structure (SMILES): CC(C)c1csc(/C=C/c2cccc(NC(=O)Cc3ccccc3CC(=O)O)c2)n1 [Example 14, (E)-2-[2-[3-[2-[4-(1-Methylethyl)-2-thiazolyl]ethenyl]phenylamino]-2-oxoethyl]benzene acetic acid]
ED50 [1, 3]: 0.05 mg/kg | inhibition in vivo at 1 mg/kg [1, 5]: 41 ± 8% | IC50 [2]: 1000 nM

Structure (SMILES): CC(C)c1csc(/C=C/c2cccc(NC(=O)Cc3cccc(CC(=O)O)c3)c2)n1 [Example 15, (E)-3-[2-[3-[2-[4-(1-Methylethyl)-2-thiazolyl]ethenyl]phenylamino]-2-oxoethyl]phenylacetic acid]
percent inhibition at 1 mg/kg I.V., LTD4-induced bronchoconstriction (ID50 not determined) ([1]; I.V., 1 mg/kg, compound 1 minute before LTD4 challenge): 40 ± 7% | IC50 [2]: 1000 nM

More lines, main results first:

IC50 [2]: 3 nM
Structure (SMILES): O=C(Cc1ccccc1C(=O)O)Nc1cccc(/C=C/c2nc(C3CC3)cs2)c1 [Example 2, (E)-2-[2-[3-[2-[4-(Cyclopropyl)-2-thiazolyl]ethenyl]phenylamino]-2-oxoethyl]benzoic acid]
ED50 [1, 3]: 0.01 mg/kg | ED50 [1, 4]: 0.22 mg/kg

IC50 [2]: 3 nM
Structure (SMILES): O=C(Cc1ccccc1C(=O)O)Nc1cccc(/C=C/c2nc(C3CCC3)cs2)c1 [Example 3, (E)-2-[2-[3-[2-[4-(Cyclobutyl)-2-thiazolyl]ethenyl]phenylamino]-2-oxoethyl]benzoic acid]
ED50 [1, 3]: 0.01 mg/kg | ED50 [1, 4]: 0.22 mg/kg

IC50 [2]: 1000 nM
Structure (SMILES): O=C(O)Cc1ccccc1CC(=O)Nc1cccc(/C=C/c2nc(C3CCC3)cs2)c1 [Example 13, (E)-2-[2-[3-[2-[4-(cyclobutyl)-2-thiazolyl]ethenyl]phenylamino]-2-oxoethyl]benzeneacetic acid]
ED50 [1, 3]: 0.01 mg/kg | ED50 [1, 4]: 0.78 mg/kg

IC50 [2]: 900 nM
Structure (SMILES): CC(C)c1csc(/C=C/c2cc(NC(=O)Cc3ccccc3C(=O)O)ccc2Cl)n1 [Example 17e, (E)-2-[2-[4-Chloro-3-[2-[4-(1-methylethyl)-2-thiazolyl]ethenyl]phenylamino]-2-oxoethyl]benzoic acid]
ED50 [1, 3]: 0.28 mg/kg | inhibition in vivo at 1 mg/kg [1, 5]: 26 ± 7%
